Laboratory results: paper PMC11096368, “Transcriptomic signature, bioactivity and safety of a non-hepatotoxic analgesic generating AM404 in the midbrain PAG region” (Scientific Reports, 2024)
“Also recorded” adds a separate entry of the source.

How the values were obtained:
[1] = test system: Chinese Hamster ovary cells; test: In vitro mammalian chromosomal aberration assay; format: cell-based; settings: for Doses with cytotoxicity (≥ 45% reduction in cell growth index): non-activated 20-h exposure
Description: In the preliminary toxicity assay, the doses tested ranged from 0.0405 to 405 µg/mL (1 mM), which was the limit dose for this assay (Bioreliance, Rockville, MD USA).
The doses selected for evaluation of chromosome aberrations were 150, 300, and 405 µg/mL for the non-activated and S9-activated 4-h exposure groups; and 10, 40, and 80 µg/mL for the non-activated 20-h exposure group. […] The induction of structural aberrations was outside the 95% control limit of the historical negative control data of 0.00% to 2.79%. […] However, the induction of structural aberrations was within the 95% control limit of the historical negative control data of 0.00% to 4.28%. […] The induction of structural aberrations was outside the 95% control limit of the historical negative control data of 0.00% to 2.68%.
The induction of numerical aberrations was within the 95% control limit of the historical negative control data.

[2] = 28-day oral toxicity study with 14-day recovery (GLP); format: in vivo, rats; settings: both sexes, Sprague-Dawley, rat, in vivo, oral; once daily for 28 days; read-out: No-adverse effect level (NOAEL)
Excerpt: (§1) We next set out to determine the toxicity and toxicokinetics of SRP-001 when administered via oral gavage once daily to Sprague–Dawley Rats for 28 d (Calvert Labs/Altasciences, Scott Township, PA USA). The study also assessed the reversibility of any toxicity observed with a 14-d recovery period. One hundred thirty-six experimentally naïve Sprague–Dawley rats (68 males and 68 females), 8 weeks old and weighing 167–295 g for males and females at the outset of the study, were assigned to toxicology treatment groups (Groups 1–4) or toxicokinetic groups (Groups 5–7). For toxicology groups, 10 animals/sex/dose were administered 0, 300, 900, or 1500 mg/kg/d SRP-001. An additional 5 animals/sex/dose in Groups 1 and 4 were targeted for a 14-d recovery period and euthanized on day 43. For toxicokinetic groups, 6 animals/sex/dose were administered 300, 900, or 1500 mg/kg/d SRP-001. Mortality/morbidity was performed twice daily and once prior to scheduled sacrifice. Animals in Groups 1–4 were observed prior to each dose administration and 1–3 h post-dose. Animals in Groups 1–4 were also observed once daily on non-dosing days and once prior to scheduled sacrifice. Body weights were recorded prior to randomization/selection, prior to dose administration on day 1, and weekly thereafter. Food consumption was determined weekly for animals in Groups 1–4. Ophthalmology examinations were performed before treatment initiation and during the last week of dosing for animals in Groups 1–4. The functional observational battery was assessed for 5 animals/sex/group in Groups 1–4 once prior to dosing and at 1–2 h following dose administration on day 1. Blood for evaluation of hematology, coagulation, and clinical chemistry and urine for urinalysis was collected from animals in Groups 1–4 on day 29 or day 43. Blood for toxicokinetic evaluation was collected from animals in Groups 5–7 at selected timepoints on days 1 and 28. All surviving animals in Groups 1–4 were sacrificed on day 29 or day 43. Selected tissues were harvested at necropsy, selected organs weighed, and selected tissues evaluated microscopically.
(§2) Following dosing, the reversibility of any toxicity observed was assessed with a 14-d recovery period of animals receiving 0 or 1500 mg/kg of SRP-001. SRP-001-related clinical signs included red staining around the forepaw, forelimbs, mouth, muzzle, and nose and brown-staining in the anogenital area. […] The majority of clinical signs were observed during the first 3 weeks of dosing, and by day 28, the majority of the animals appeared normal. […] These differences remained within or close to the historically normal ranges. Statistically significant differences in total protein, globulin, and mean corpuscular hemoglobin remained present in males after the recovery period, although at a smaller magnitude. SRP-001-related microscopic findings were limited to the liver and included minimal to mild centrilobular hepatocellular hypertrophy in both sexes at ≥ 300 mg/kg/d. This finding correlated with statistically significant increases in liver weights in both sexes.
(§3) Exposure to SRP-001 following oral gavage dosing at 300, 900, and 1500 mg/kg SRP-001 was dose-dependent, increasing with escalating doses following a single dose. […] Based on the parameters observed, the no-adverse effect level (NOAEL) of SRP-001, when administered once daily for 28 d to Sprague–Dawley rats, was 1500 mg/kg.

[3] = test system: Sprague Dawley rats; test: as above; format: in vivo
Excerpt: as §1, §2, §3

[4] = test system: male Sprague–Dawley rats; test: Pulmonary function evaluation in conscious rats (GLP); format: in vivo; settings: oral, 220, 440, 660 mg/kg
Description: The potential effects of orally administered SRP-001 on respiratory rate, tidal volume, and minute volume in conscious male Sprague–Dawley rats was studied in 24 male rats. The rodents were trained for two days in the head-out plethysmograph chamber for 15–17 min each prior to the experiment. On the day of dosing, each animal was weighed and placed in the plethysmograph chamber, and baseline respiratory parameters were obtained for 5 min following an approximately 5-min stabilization period. The rats were then removed from the chamber and dosed by oral gavage. Three groups of six male Sprague–Dawley rats each were orally administered SRP-001 at a single dose of 220, 440, or 660 mg/kg at a dose volume of 10 mL/kg. […] Following dosing, each animal was returned to its designated plethysmograph chamber, and the respiratory parameters were recorded at 30 min (± 5 min), 2, 4, and 6 h (± 15 min). Animals were allowed to stabilize in the plethysmograph chamber for at least 5 min before each reading was taken. The following parameters were acquired, recorded, and analyzed using Ponemah Physiology Platform (Ponemah v.5.20 Pulmonary); Respiratory rate, Tidal Volume, and Minute Volume, Values for the test article treated group were compared to the vehicle control values using a two-way repeated measures ANOVA followed by a Bonferroni Multiple Comparison Test (SigmaStat, v. 4.0). […]

[5] = Toxicokinetics following IV & PO dosing; format: in vivo, dog; settings: beagle dogs
Excerpt: Supplementary Fig. 19. Toxicokinetic (TK) beagle dog data.

## CCN(CC)C(=O)c1ccccc1S(=O)(=O)NCC(=O)Nc1ccc(O)cc1 [SRP-001, N,N-diethyl-2-[[2-(4-hydroxyanilino)-2-oxo-ethyl]sulfamoyl]benzamide]
[1]
  Cytotoxicity (≥ 45% reduction in cell growth index): not observed at any dose
  Induction of numerical chromosomal aberrations: negative
  Induction of structural chromosomal aberrations: positive
[1]; Chinese hamster, 20 h, 80 µg/mL
  Structural aberrations: 3.7%
[1]; chromosome aberration assay, non-activated 4-h exposure
  Dose with cytotoxicity (≥ 45% reduction in cell growth index): 405 µg/mL
[1]; chromosome aberration assay
  Doses with cytotoxicity (≥ 45% reduction in cell growth index): ≥ 70 µg/mL
[1]; preliminary toxicity assay
  Doses with cytotoxicity (≥ 45% reduction in cell growth index): ≥ 122 µg/mL
[2]
  NOAEL at 28 d: 1500 mg/kg
[3]; 300, 900, 1500 mg/kg, single dose and 28 days
  Exposure versus dose: dose-dependent
[3]; 300, 900, 1500 mg/kg/d
  Body weight, food consumption, functional observation battery, ophthalmology, coagulation, urinalysis: no SRP-001-related effects
[3]; 28 days of daily oral doses, rats
  Doses without treatment-related adverse effects: up to 1500 mg/kg/day
[3]; both sexes, 28 d
  Doses with minimal to mild centrilobular hepatocellular hypertrophy (non-adverse): ≥ 300 mg/kg/day
[4]
  Respiratory findings (respiratory rate, tidal volume, minute volume): did not induce any significant effects; also recorded: No significant findings
[5]
  Exposure versus dose: dose-dependent response
  Time of Cmax: 15 to 30 min
